Reference: US20190307664A1, “METHOD AND COSMETIC COMPOSITION FOR ENHANCED TRANSDERMAL DELIVERY OF ALKYL SUBSTITUTED RESORCINOL” (CONOPCO, INC., D/B/A UNILEVER, priority 2016, published 2019)

Test system: HeMnDP melanocyte monoculture
Assay: Melanin content assay in melanocyte monoculture (after Calcein-AM viability assay)
Format: cell-based
Details: 72 hours
Description: All samples were analysed to determine the extent of their ability to bring about skin lightening by checking the cell viability and melanin content assay. Set Up of Cultures Involved the Following Steps: • ([…] per well (single wells/treatment) in 24-well Nunc plates on Day-0 were seeded to establish a melanocyte monoculture system. • (ii) The volume of media per well was limited to 1 ml of Melanocyte Growth Media (MGM) • (iii) 24 hours later, fresh media containing actives was added again. At this stage also, 1 ml of MGM was used. • (iv) Plates were incubated for 72 hours at 37° C. in a CO2 incubator. • (v) At the end, the plates were sent for Calcein assay, described hereinafter, followed by melanin content estimation. Calcein-AM Viability Assay • (i) The spent media was removed from each well of a 24-well plate and rinsed once with 400 μl of 1×PBS-Ca-Mg (see preparation below), including wells without cells (Control wells). • (ii) One μM Calcein-AM (working stock) in 1×PBS-Ca-Mg from 1 mM stock (e.g. 10 μl of 1 mM Calcein stock in 100% DMSO in 10 ml of 1×PBS-Ca-Mg) was prepared. About 400 μl of Calcein-AM working stock solution was added to each well, including the controls cells. • (iii) The plates were covered with aluminum foil and were incubated for 30 minutes in a CO2 incubator. • (iv) In the meantime, fluorescence was measured (excitation at 490 nm and emission at 520 nm) using TECAN® instrument after 30 minutes of dye incubation. • (v) After reading the plates, the buffer containing Calcein was removed and melanin content assay was then carried out. […] The % inhibition was then calculated for each case. Higher values of % inhibition indicate an active ingredient's potential to serve as a skin lightening agent. The tests of Example 2 were repeated with isonicotinamide instead of picolinamide.

NC(=O)c1ccncc1 [Ex-I, Isonicotinamide]
Inhibition in melanin synthesis (Isonicotinamide 122 μg): −16% | Inhibition in melanin synthesis (Isonicotinamide 1220 μg): 10%

CCCCCCc1ccc(O)cc1O [Ex-B, 4-hexyl resorcinol]
Inhibition in melanin synthesis (4-hexyl Resorcinol 0.192 μg, Example 2): 3% | Inhibition in melanin synthesis (4-hexyl Resorcinol 0.192 μg, Example 3): 3% | Inhibition in melanin synthesis (4-hexyl Resorcinol 1.92 μg, Example 2): 31% | Inhibition in melanin synthesis (4-hexyl Resorcinol 1.92 μg, Example 3): 31%

NC(=O)c1ccccn1 [Ex-D, Picolinamide]
Inhibition in melanin synthesis (picolinamide 122 μg): 1% | Inhibition in melanin synthesis (picolinamide 1220 μg): 27%
